Assay results from ChEMBL document CHEMBL1201862, “PubChem BioAssay data set” (2004).
Activity calls are given as the source filed them.

Assays:
[1] = biological target: Glyceraldehyde-3-phosphate dehydrogenase (Homo sapiens, UniProt P04406)
[2] = biological target: Alkaline phosphatase, placental type (Homo sapiens, UniProt P05187); assay: human placental alkaline phosphatase inhibition – biochemical, luminescence, confirmation (AID 1512); format: functional
[3] = biological target: T1, Alkaline phosphatase, tissue-nonspecific isozyme (Homo sapiens, UniProt P05186); assay: potency against alkaline phosphatase TNAP – biochemical, luminescent, dose response, SAR follow-up (AID 1056)
T1 sequence (P05186 whole entry): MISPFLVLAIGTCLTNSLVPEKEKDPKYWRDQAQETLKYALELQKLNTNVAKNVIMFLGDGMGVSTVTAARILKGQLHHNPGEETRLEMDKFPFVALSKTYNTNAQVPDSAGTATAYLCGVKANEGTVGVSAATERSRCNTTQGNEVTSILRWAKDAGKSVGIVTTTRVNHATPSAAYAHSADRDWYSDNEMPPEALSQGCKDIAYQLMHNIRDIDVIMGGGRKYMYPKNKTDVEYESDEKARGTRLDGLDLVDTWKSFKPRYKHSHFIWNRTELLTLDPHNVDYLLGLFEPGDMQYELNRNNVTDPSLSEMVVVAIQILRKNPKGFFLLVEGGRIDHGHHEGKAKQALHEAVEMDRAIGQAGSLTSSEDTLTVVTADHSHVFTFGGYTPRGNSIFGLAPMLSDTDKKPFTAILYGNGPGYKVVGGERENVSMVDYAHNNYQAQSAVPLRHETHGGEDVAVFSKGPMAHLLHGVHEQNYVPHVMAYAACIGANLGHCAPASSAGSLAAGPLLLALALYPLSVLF

[4] = NIH-3T3 fibroblast cytotoxicity, dose response, cytotoxicity control, cell-based, fluorescence, Alamar Blue, secondary assay (AID 2327); format: functional;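 further: NIH-3T3 mouse fibroblasts cultured with fluconazole at 8 µg/mL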
Beta-galactosidase [5] = biological target: T2, Beta-galactosidase (Escherichia coli, UniProt Q8VNN2); assay: detection-enzyme interference by beta-gal modulators – biochemical, E. coli enzyme, set 3, artefact control for CCR6 antagonist project, dose response (AID 504712); format: functional
T2 sequence (Q8VNN2 whole entry): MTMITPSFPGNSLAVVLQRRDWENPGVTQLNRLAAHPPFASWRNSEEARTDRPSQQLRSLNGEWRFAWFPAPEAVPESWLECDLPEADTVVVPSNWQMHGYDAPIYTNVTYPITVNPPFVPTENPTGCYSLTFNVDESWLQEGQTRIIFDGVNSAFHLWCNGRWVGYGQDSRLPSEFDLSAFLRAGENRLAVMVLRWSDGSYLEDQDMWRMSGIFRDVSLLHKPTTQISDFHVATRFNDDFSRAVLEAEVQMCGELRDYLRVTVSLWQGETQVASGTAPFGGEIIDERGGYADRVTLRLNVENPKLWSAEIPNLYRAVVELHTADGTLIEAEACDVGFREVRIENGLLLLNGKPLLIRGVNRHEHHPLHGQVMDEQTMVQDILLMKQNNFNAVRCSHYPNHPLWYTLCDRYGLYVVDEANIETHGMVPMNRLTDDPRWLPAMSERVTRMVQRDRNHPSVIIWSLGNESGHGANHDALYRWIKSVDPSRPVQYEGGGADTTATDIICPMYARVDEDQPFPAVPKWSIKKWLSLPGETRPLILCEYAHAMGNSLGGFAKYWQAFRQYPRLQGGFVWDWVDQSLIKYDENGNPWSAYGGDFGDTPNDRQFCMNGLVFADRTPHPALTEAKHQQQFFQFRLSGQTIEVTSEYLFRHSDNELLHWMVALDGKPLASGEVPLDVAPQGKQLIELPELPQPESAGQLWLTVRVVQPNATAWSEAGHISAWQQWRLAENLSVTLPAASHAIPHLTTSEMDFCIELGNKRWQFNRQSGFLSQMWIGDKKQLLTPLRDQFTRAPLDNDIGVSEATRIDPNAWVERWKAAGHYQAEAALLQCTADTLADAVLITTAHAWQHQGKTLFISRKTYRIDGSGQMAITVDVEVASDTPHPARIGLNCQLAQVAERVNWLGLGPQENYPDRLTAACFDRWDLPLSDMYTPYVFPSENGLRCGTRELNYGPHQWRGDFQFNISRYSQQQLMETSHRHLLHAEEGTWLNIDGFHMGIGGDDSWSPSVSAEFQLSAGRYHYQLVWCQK

Nonstructural protein 1 = Nonstructural protein 1 (Influenza A virus, UniProt Q194T2); format: functional, Influenza A virus (A/California/07/2009(H1N1))
Nonstructural protein 1, sequence (Q194T2 whole entry): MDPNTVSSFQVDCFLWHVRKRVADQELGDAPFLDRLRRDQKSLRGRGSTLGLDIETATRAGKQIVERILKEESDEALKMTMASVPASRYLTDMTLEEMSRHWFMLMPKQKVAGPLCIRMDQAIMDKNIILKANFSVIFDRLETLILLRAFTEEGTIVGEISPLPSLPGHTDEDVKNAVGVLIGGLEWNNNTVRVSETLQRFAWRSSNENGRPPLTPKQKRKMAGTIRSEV

[6] = biological target: T3, Delta-type opioid receptor (Homo sapiens, UniProt P41143); assay: HTS Image-Based Screen for Antagonists of the DOR Receptor. [Related pubchem assays (depositor defined):AID1777, AID1785, AID1786, AID2133]; format: functional
T3 sequence (P41143 whole entry): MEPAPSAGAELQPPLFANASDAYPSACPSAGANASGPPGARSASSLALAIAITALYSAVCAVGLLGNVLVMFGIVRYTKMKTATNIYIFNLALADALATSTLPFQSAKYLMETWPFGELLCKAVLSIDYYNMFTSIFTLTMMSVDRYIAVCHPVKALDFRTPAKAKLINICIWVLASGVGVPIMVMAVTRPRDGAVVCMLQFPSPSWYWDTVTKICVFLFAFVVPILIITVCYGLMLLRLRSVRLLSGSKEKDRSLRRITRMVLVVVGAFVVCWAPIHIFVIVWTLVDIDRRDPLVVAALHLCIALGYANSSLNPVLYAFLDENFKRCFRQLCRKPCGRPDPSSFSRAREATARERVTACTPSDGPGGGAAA

Mu-type opioid receptor = Mu-type opioid receptor (Homo sapiens, UniProt P35372); assay: HTS Image-Based Screen for Agonists of the MOR Receptor. [Related pubchem assays (depositor defined):AID1777, AID1785, AID1786, AID2133]; format: functional;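 further: imaging of beta-arrestin GFP recruitment into spots after receptor activation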
Mu-type opioid receptor, sequence (P35372 whole entry): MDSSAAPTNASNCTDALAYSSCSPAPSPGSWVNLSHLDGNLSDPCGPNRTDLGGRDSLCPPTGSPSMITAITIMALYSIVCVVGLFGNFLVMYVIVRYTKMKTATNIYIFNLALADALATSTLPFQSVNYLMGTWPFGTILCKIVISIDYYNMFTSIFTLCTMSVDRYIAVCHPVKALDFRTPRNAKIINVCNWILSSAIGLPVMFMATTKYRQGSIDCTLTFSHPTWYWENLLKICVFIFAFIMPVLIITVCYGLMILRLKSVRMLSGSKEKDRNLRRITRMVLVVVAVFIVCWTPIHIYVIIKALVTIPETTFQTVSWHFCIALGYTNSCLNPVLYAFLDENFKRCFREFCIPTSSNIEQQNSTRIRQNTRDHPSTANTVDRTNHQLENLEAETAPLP

[7] = biological target: T3, Delta-type opioid receptor; assay: HTS Image-Based Screen for Agonists of the DOR Receptor. [Related pubchem assays (depositor defined):AID1777, AID1786, AID2133]; format: functional
[8] = biological target: T4, Kappa-type opioid receptor (Homo sapiens, UniProt P41145); format: functional
T4 sequence (P41145 whole entry): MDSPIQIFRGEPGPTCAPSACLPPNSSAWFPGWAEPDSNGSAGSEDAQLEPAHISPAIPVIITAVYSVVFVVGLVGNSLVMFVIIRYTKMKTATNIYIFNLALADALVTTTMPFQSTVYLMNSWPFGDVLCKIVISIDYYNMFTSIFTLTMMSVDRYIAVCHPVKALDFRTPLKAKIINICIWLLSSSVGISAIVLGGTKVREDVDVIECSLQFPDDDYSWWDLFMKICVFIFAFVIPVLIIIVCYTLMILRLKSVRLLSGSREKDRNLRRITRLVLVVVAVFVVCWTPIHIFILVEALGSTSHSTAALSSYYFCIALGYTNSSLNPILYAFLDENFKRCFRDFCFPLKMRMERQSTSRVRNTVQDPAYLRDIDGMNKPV

Beta-galactosidase [9] = biological target: T2, Beta-galactosidase; format: functional
[10] = biological target: T4, Kappa-type opioid receptor; format: functional; remark: listed apart in the source
[11] = luciferase reporter signal suppression in cells – H4 neuroglioma cells, luminescence, dose response (AID 1990); format: functional, cell-based
HEK293 [12] = assay: inhibition of NOD1-driven NF-kB reporter – cell-based, luminescence, uHTS, primary screen (AID 1578); format: functional; details: Homo sapiens
HEK293 [13] = assay: cells; format: functional, cell-based; details: Homo sapiens
[14] = Luminescence Cell-Based Dose Response HTS to Identify Inhibitors of 5'UTR Stem-Loop Driven Prion Protein mRNA Translation in H4 Neuroglioblastoma Cells. [Related pubchem assays: 1827 (Project Summary), 1813 (Primary HTS)]; format: functional
[15] = alpha-synuclein stem-loop luciferase translation blockers – H4 neuroglioma cells, luminescence, confirmation (AID 1988); format: functional, cell-based
HEK293 [16] = assay: cells; format: functional, cell-based; details: Homo sapiens; remark: listed apart in the source
[17] = biological target: Luciferin 4-monooxygenase (Photinus pyralis, UniProt P08659); assay: inhibition of purified Photinus pyralis luciferase – biochemical, luminescence, dose response (AID 1891)
Luciferin 4-monooxygenase, sequence (P08659 whole entry): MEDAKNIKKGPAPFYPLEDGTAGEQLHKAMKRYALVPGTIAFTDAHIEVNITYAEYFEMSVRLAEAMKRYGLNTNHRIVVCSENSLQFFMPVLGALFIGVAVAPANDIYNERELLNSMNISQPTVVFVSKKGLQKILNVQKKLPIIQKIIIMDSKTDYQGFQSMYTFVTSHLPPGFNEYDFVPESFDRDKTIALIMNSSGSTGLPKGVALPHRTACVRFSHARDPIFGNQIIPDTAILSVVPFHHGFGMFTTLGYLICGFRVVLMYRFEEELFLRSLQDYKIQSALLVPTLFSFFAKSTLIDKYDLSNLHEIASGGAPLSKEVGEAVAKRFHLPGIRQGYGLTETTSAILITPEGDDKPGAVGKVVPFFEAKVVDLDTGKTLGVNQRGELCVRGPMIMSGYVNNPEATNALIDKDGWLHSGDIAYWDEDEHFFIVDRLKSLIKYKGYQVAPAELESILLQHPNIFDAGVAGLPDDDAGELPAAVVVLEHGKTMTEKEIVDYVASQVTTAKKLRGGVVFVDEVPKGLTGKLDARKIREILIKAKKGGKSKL

[18] = Luminescence Cell-Based Dose Confirmation HTS to Identify Inhibitors of Platelet Dense Granule Release. [Related pubchem assays: 1663 (Primary HTS), 1678 (Summary of Project)]; format: functional
[19] = biological target: Nucleotide-binding oligomerization domain-containing protein 2 (Homo sapiens, UniProt Q9HC29); assay: inhibition of NOD2-driven NF-kB reporter – cell-based, luminescence, uHTS, HEK293 (AID 1566); format: functional
Nucleotide-binding oligomerization domain-containing protein 2, sequence (Q9HC29 whole entry, the tested form may be a part): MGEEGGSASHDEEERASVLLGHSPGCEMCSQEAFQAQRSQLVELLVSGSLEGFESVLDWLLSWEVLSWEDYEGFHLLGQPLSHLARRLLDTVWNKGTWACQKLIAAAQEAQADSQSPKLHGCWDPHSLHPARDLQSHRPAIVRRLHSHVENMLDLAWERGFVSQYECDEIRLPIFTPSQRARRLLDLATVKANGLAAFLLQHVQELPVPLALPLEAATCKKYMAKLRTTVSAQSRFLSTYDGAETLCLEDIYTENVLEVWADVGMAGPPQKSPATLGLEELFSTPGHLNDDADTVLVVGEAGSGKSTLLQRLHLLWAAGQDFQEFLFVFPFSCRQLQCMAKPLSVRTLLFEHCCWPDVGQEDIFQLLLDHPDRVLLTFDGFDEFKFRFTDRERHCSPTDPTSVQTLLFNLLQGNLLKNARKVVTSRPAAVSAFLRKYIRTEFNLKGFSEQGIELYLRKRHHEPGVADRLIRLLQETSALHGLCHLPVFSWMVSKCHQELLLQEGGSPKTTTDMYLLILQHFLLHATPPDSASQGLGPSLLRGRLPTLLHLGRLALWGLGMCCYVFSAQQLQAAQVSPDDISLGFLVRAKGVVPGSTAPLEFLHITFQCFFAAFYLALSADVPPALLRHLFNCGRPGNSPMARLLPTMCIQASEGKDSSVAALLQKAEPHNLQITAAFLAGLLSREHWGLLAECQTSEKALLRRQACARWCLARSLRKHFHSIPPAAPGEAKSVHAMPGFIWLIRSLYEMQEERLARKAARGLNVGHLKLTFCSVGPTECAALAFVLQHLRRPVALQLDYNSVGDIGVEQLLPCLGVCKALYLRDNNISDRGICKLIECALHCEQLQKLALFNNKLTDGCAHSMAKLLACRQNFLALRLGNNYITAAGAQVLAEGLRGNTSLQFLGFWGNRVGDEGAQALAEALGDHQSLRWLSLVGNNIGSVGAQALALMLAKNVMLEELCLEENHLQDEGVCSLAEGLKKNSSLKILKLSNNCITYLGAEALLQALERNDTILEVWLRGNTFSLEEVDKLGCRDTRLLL

HEK293 [20] = assay: NOD2 signaling inhibitors in MDP-stimulated cells, cell-based, uHTS, luminescence (AID 2001); format: functional; details: Homo sapiens
HEK293 [21] = assay: cells; format: functional, cell-based; details: Homo sapiens; remark: listed apart in the source

Alkaline phosphatase, placental type, sequence (P05187 whole entry): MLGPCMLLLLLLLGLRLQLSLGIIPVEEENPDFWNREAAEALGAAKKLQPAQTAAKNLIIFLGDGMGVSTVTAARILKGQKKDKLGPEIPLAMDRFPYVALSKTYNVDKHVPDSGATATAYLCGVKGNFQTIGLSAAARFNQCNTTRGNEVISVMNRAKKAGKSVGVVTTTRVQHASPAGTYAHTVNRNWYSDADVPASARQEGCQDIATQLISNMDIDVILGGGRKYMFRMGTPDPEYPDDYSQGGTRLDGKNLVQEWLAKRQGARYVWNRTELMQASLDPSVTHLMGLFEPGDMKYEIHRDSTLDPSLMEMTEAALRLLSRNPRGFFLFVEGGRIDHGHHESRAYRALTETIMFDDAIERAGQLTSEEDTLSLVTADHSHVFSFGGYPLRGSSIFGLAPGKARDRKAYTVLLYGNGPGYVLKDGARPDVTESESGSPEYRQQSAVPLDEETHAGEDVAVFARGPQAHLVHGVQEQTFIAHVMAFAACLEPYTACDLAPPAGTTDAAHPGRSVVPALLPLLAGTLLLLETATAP
Glyceraldehyde-3-phosphate dehydrogenase, sequence (P04406 whole entry): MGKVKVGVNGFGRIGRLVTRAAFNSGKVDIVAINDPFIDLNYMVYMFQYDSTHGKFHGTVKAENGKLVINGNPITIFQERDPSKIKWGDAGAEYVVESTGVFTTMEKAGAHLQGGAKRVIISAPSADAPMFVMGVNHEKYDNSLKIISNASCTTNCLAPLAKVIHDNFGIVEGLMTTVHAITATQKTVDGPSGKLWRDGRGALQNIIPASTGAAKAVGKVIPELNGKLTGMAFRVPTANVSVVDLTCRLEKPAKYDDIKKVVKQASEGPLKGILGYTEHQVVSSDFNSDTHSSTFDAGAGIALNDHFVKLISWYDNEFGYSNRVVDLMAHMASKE

O=C(c1cc(-c2cc(F)c(Cl)cc2Cl)[nH]n1)N1CCCCC1
IC50 [1]: > 100 µM (not active)
IC50 [2]: > 100 µM (inactive)
IC50 [3]: 0.322 µM (active)

Cc1c(N=NC2=C(O)CC(C)(C)CC2=O)c(=O)n(-c2ccccc2)n1C
EC50 [4]: > 160 µM (inactive)
IC50 (Beta-galactosidase [5]): > 66.6 µM (inactive)
IC50 (Nonstructural protein 1): 3.63 µM (active)

COC(=O)c1ccccc1NC(=O)CSc1nnc(-c2ccccc2Cl)[nH]1
IC50 [1]: > 100 µM (not active)
IC50 [2]: > 100 µM (inactive)
IC50 [3]: 4.88 µM (active)

CC(=O)N1N=C(c2cccs2)CC1c1cccc([N+](=O)[O-])c1 (stereo not drawn)
IC50 [6]: > 32 µM (inactive)
EC50 (Mu-type opioid receptor): > 32 µM (inactive)
EC50 [7]: > 32 µM (inactive)
IC50 [8]: 14.4 µM (active)
EC50 (Beta-galactosidase [9]): 20.4 µM (active)
IC50 [10]: > 32 µM

Cc1cc(/C=N/Nc2ncnc(N)c2[N+](=O)[O-])c(C)n1-c1ccccc1
EC50 [11]: 0.171 µM (active)
EC50 (HEK293 [12]): 4.14 µM (active)
IC50 (HEK293 [13]): 1.4 µM (active)
EC50 [14]: < 0.1 µM (active)
EC50 [15]: 0.192 µM (active)
IC50 (HEK293 [16]): > 20 µM (inactive)
EC50 [17]: 1.1 µM (active)
EC50 [18]: 3.67 µM (active)
EC50 [19]: < 0.31 µM (inactive)
IC50 (HEK293 [20]): 6.1 µM (active)
IC50 (HEK293 [21]): > 20 µM (inactive)

COc1ccc(C(=O)CSc2nc(C)cc(C)n2)cc1
IC50 [2]: > 100 µM (inactive)
IC50 [3]: > 100 µM (inactive)
